# Experimental data taken from article PMC3556473, “Absorption, metabolism and excretion of [^14C]pomalidomide in humans following oral administration” (Cancer Chemotherapy and Pharmacology, 2012).
# Values joined by “and” are separate entries in the source; they are usually repeats but may differ in a detail not shown here. Equal entries are not always repeated.
# Key:
# [1] = Plasma pharmacokinetics of pomalidomide and circulating metabolites by radiochromatography (metabolite profiling); assay type: in vivo, human; design: AUC0–24 / AUC0−∞: concentration or dose not given beside the values; conditions: for Plasma (% AUC relative to TRA): AUC0–24 (unchanged drug or metabolite)/AUC0–24 (TRA) * 100 %; for Tmax / half-life: human, oral, 2 mg; for Tmax / half-life / AUC0–24 / AUC0−∞ / C max: plasma, radiochromatography; for Tmax: median and range; for half-life: male, read-out: t ½ (converted); for half-life / AUC0–24 / AUC0−∞ / C max: geometric mean (%CV); for AUC/AUCTRA: plasma exposure relative to total radioactivity
# Method: Individual plasma samples collected from all subjects at 1, 2.5, 4, 6, 10, 12 and 24 h post-dose were analyzed for metabolite profiling. Samples were extracted with acetonitrile, the supernatant was removed, and the pellet was washed with 0.1 % formic acid in water and extracted again with acetonitrile. The combined supernatants were adjusted to 15 or 25 mL by adding acetonitrile then evaporated to dryness under a stream of nitrogen. The residues were re-suspended in 0.1 % formic acid in water, assayed for extraction recovery and analyzed for metabolite profiling. A control plasma sample spiked with [^14C]pomalidomide was extracted in a similar manner to determine the extraction efficiency and stability of [^14C]pomalidomide.
# (§1) HPLC analysis for metabolite profiling (HPLC Method 1) was performed using a Waters 2695 Alliance Separation Module (Waters Corp., Milford, MA) with the autosampler set to 4 °C. [^14C]Pomalidomide and metabolites were separated using an ACE C18 column (150 × 4.6 mm, 3 μm; Advanced Chromatography Technologies, Aberdeen, Scotland) equipped with an ACE C18 guard column (10 × 3 mm, 3 μm). The mobile phases used were 25 mM ammonium acetate in water: pH 5.5 with formic acid (mobile phase A) and methanol (mobile phase B). The column temperature was 30 °C, and the flow rate was 0.7 mL/min. The linear gradient was delivered as follows: 0–2 min 100 % A; 2–38 min to 64 % A; 38–44 min to 0 % A; 44–48 min hold at 0 % A; return to initial conditions over 2 min.
# (§2) Radioactivity profiles for plasma and excreta were determined by collecting the column eluate into 96-well Deepwell LumaPlates™ at a rate of 0.25 min/fraction. The plates were dried and the radioactivity in each well determined using a PerkinElmer TopCount® NXT™ Microplate Scintillation Counter. HPLC radiochromatograms were reconstructed using LC-ARC data handling software.
# For pomalidomide and metabolite concentrations in plasma based on metabolite profiling data, pharmacokinetic data were generated by non-compartmental analysis of plasma versus time profiles using WinNonlin (version 4.1, Enterprise Edition).
# [2] = Metabolite profiling of urine and feces (% of dose excreted); assay type: in vivo, human; conditions: radiochromatography; for % of dose excreted, Urine: pooled urine 0–72 h
# Method: For each subject, urine samples were pooled using an equal percentage by volume of the 0–6, 6–12, 12–24, 24–48 and 48–72 h samples. Pools of the 0–6, 6–12, 12–24, 24–48 and 48-72 h collections were also prepared across subjects and analyzed for metabolite profiling. Samples were mixed and centrifuged prior to the supernatants being transferred to fresh tubes for metabolite profiling analysis.
# For each subject, fecal homogenates for metabolite profiling were pooled using an equal percentage by weight of the 0–24, 24–48, 48–72 and 72–96 h samples. Pools of the 0–24, 24-48, 48–72 and 72–96 h collections were also prepared across subjects and analyzed for metabolite profiling. An aliquot of each pool was extracted with acetonitrile; samples were mixed and centrifuged. The supernatant was removed and the pellets re-suspended with 0.1 % formic acid and extracted with acetonitrile. The combined supernatants were evaporated to dryness under a stream of nitrogen and the residue re-suspended in methanol:0.1 % formic acid in water (1:1). Samples were assayed for extraction recovery prior to metabolite profiling. A control fecal homogenate spiked with [^14C]pomalidomide was extracted in a similar manner to determine the extraction efficiency and stability of [^14C]pomalidomide.
# as §1, §2
# [3] = system: recombinant human CYP (rCYP) enzymes; assay: Incubations of [14C]pomalidomide with 10 recombinant human CYP enzymes, radiochromatography / LC–MS/MS; assay type: in vitro ADME
# Method: The CYP enzymes responsible for the formation of the hydroxy pomalidomide metabolites were investigated using 10 recombinant human CYP (rCYP) enzymes (CYP1A2, CYP2A6, CYP2B6, CYP2C8, CYP2C9, CYP2C19, CYP2D6, CYP2E1, CYP3A4 and CYP3A5) at 100 pmol/mL. Incubations were prepared using [^14C]pomalidomide (1 μM) in 0.1 M potassium phosphate buffer (pH 7.4) with 4 mM MgCl2, pre-incubated for 5 min at 37 °C. Reactions were initiated by the addition of 1 mM NADPH and continued for 30 or 60 min. Reactions were quenched with two volumes of ice-cold 0.1 % formic acid in acetonitrile containing [^13C5]pomalidomide as internal standard. The samples were mixed and centrifuged, and a subsample of the supernatant evaporated to dryness. The resulting pellet was reconstituted in 0.1 % formic acid in water and acetonitrile (4:1, v/v) and analyzed using HPLC with radiochromatography and/or LC–MS/MS. The rate of formation of the notable human metabolite M17 was calculated and scaled to human in vivo situation using relative abundance method.
# H929 MM cell = assay: Inhibition of MM cell proliferation ([3H]-thymidine incorporation, 3-day culture); assay type: cell-based; conditions: Homo sapiens, NCI-H929
# Method: (§3) Metabolites and hydrolysis products of pomalidomide were tested for pharmacological activity in the following three assay systems: (1) inhibition of MM cell proliferation, (2) enhancement of primary human T cell IL-2 production and (3) inhibition of TNF-α production by lipopolysaccharide (LPS)-stimulated human peripheral blood mononuclear cells (PBMC). For all three assay types, compounds were dissolved in 100 % dimethyl sulfoxide (DMSO) and diluted into complete cell culture medium, consisting of Roswell Park Memorial Institute (RPMI)-1640 plus penicillin, streptomycin and L-glutamine (Mediatech, Manassas, VA). The MM cell proliferation cell culture medium contained 10 % fetal bovine serum, while the primary human cell cultures contained 10 % human AB serum (Invitrogen, Brown Deer, WI). The final DMSO concentration in the cell culture media was 0.25 %.
# (§4) The human MM cell line OPM-2 was obtained from DSMZ (Braunschweig, Germany), and human MM cell lines U266 B1 and NCI-H929 were obtained from ATCC (Manassas, VA). Inhibition of MM cell proliferation was assessed by the [^3H]-thymidine incorporation assay in a 3-day culture in the presence of compounds in complete medium, as previously described. Primary human T cells were isolated from PBMC by negative selection using the RosetteSep T Cell Enrichment Cocktail (STEMCELL Technologies, Tukwila, WA) according to the manufacturer’s procedures. Costimulation of T cell IL-2 production was measured in a 2-day culture of primary human T cells isolated from healthy donors stimulated with anti-CD3 antibody in the presence of compounds, as previously described. Inhibition of TNF-α production by LPS-stimulated human PBMC was measured in a 1-day culture in the presence of compound, as previously described.
# OPM-2 MM cell = assay: as above; assay type: cell-based; conditions: Homo sapiens
# Method: as §3, §4
# U266 MM cell = assay: as above; assay type: cell-based; conditions: Homo sapiens, U-266
# Method: as §3, §4
# T cell IL-2 production = assay: Enhancement of primary human T cell IL-2 production (anti-CD3 stimulated, 2-day culture); assay type: cell-based; conditions: 48 h, anti-CD3 stimulated primary human T cells
# Method: as §3, §4
# PBMC TNF-α production = assay: Inhibition of TNF-α production by LPS-stimulated human PBMC (1-day culture); assay type: cell-based; conditions: 24 h
# Method: as §3, §4
"% of dose excreted, Feces ([2]; pooled feces 0–96 h)",level of metabolite detected by radiochromatography in rCYP incubations ([3]; all rCYP incubations of [14C]pomalidomide 1 μM),level of metabolite detected by radiochromatography in the absence of enzyme ([3]; incubations of [14C]pomalidomide without enzyme),SMILES,Plasma (% AUC relative to TRA) [1],Tmax [1],half-life [1],AUC/AUCTRA [1],AUC0–24 [1],AUC0−∞ [1],C max [1],"% of dose excreted, Urine [2]",IC50 (H929 MM cell),IC50 (OPM-2 MM cell),IC50 (U266 MM cell),EC50 (T cell IL-2 production),IC50 (PBMC TNF-α production),formation of metabolite in rCYP incubations (LC–MS/MS) ([3]; any of the samples analyzed)
0.3%,2.5–5.9%,5.5%,NC(=O)CCC(C(=O)O)N1C(=O)c2cccc(N)c2C1=O (stereo not drawn) [Metabolite M11],6.3%,2.5 h,10 h,6.34%,12.3 (43.6) ngEq*h/mL,15.9 (59.7) ngEq*h/mL,0.965 (33.3) ngEq/mL,23% and 23.3%,> 1000 nM,> 1000 nM,> 1000 nM,> 10000 nM,> 10000 nM,–
–,–,–,"Nc1ccc(O)c2c1C(=O)N(C1CCC(=O)NC1=O)C2=O (stereo not drawn) [Metabolite M16, 7-hydroxy pomalidomide]",6.1%,1 h,14.2 h,6.13%,11.9 (16.8) ngEq*h/mL,17.6 (29.9) ngEq*h/mL,0.907 (27.4) ngEq/mL,7.0%,> 1000 nM,> 1000 nM,> 1000 nM,> 10000 nM,> 10000 nM,not observed
